Assay results taken from ChEMBL document CHEMBL1201862, “PubChem BioAssay data set” (2004).
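Grown in 96-well plates, cells were treated for 48 hours with each compound at five concentrations. Insufficient inhibition: endpoint recorded as highest concentration tested. Abbreviation: GI50, concentration required for 50% inhibition of growth.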 Active and inactive are the calls of the source. Rule as the data show it: active = GI50 up to about 1.1 µM and inactive = higher.

How the values were obtained:
Test in all cases: NCI tumour cell line growth inhibition, 48 h
[1] = system: NCI-H23
[2] = system: NCI/ADR-RES
[3] = system: SK-MEL-28
[4] = system: RPMI-8226
[5] = system: K562
[6] = system: A498
[7] = system: HCT-116
[8] = system: Malme-3M
[9] = system: DU-145
[10] = system: U-251
[11] = system: SF-539
[12] = system: M14
[13] = system: HOP-92
[14] = system: SK-OV-3
[15] = system: Hs-578T
[16] = system: UO-31
[17] = system: MDA-N
[18] = system: NCI-H522
[19] = system: HCC 2998
[20] = system: OVCAR-4
[21] = system: SK-MEL-5
[22] = system: UACC-62
[23] = system: MDA-MB-435
[24] = system: SR
[25] = system: HL-60
[26] = system: COLO 205
[27] = system: LOX IMVI
[28] = system: SNB-75
[29] = system: UACC-257
[30] = system: EKVX
[31] = system: HT-29
[32] = system: ACHN
[33] = system: KM12
[34] = system: A549
[35] = system: SF-295
[36] = system: OVCAR-3
[37] = system: NCI-H226
[38] = system: MOLT-4
[39] = system: T47D
[40] = system: SF-268
[41] = system: IGROV-1
[42] = system: NCI-H460
[43] = system: HCT-15
[44] = system: SW-620
[45] = system: TK-10
[46] = system: SNB-19
[47] = system: PC-3
[48] = system: CCRF-CEM
[49] = system: SK-MEL-2
[50] = system: RXF 393
[51] = system: SN12C
[52] = system: HOP-62
[53] = system: MDA-MB-231
[54] = system: CAKI-1
[55] = system: OVCAR-5
[56] = system: OVCAR-8
[57] = system: 786-0
[58] = system: MCF7

For `N#Cc1c(N2CCCC2)ncn(-c2ccccc2)c1=O`, the GI50 [1] was > 100 µM (inactive), the GI50 [2] was > 100 µM (inactive) and the GI50 [3] was > 100 µM (inactive). For the same compound, the GI50 [4] was > 100 µM (inactive), the GI50 [5] was > 100 µM (inactive) and the GI50 [6] was > 100 µM (inactive). The GI50 [7] was > 100 µM (inactive), the GI50 [8] was > 100 µM (inactive) and the GI50 [9] was > 100 µM (inactive). The GI50 [10] was > 100 µM (inactive), the GI50 [11] was > 100 µM (inactive) and the GI50 [12] was > 100 µM (inactive). The GI50 [13] was > 100 µM (inactive), the GI50 [14] was > 100 µM (inactive) and the GI50 [15] was > 100 µM (inactive). The GI50 [16] was > 100 µM (inactive), the GI50 [17] was > 100 µM (inactive) and the GI50 [18] was > 100 µM (inactive). For the same compound, the GI50 [19] was > 100 µM (inactive), the GI50 [20] was > 100 µM (inactive) and the GI50 [21] was > 100 µM (inactive). The GI50 [22] was > 100 µM (inactive), the GI50 [23] was > 100 µM (inactive) and the GI50 [24] was > 100 µM (inactive). The GI50 [25] was > 100 µM (inactive), the GI50 [26] was > 100 µM (inactive) and the GI50 [27] was > 100 µM (inactive). For the same compound, the GI50 [28] was > 100 µM (inactive), the GI50 [29] was > 100 µM (inactive) and the GI50 [30] was > 100 µM (inactive). The GI50 [31] was > 100 µM (inactive), the GI50 [32] was > 100 µM (inactive) and the GI50 [33] was > 100 µM (inactive). The GI50 [34] was > 100 µM (inactive), the GI50 [35] was > 100 µM (inactive) and the GI50 [36] was > 100 µM (inactive). The GI50 [37] was > 100 µM (inactive), the GI50 [38] was > 100 µM (inactive) and the GI50 [39] was > 100 µM (inactive). For the same compound, the GI50 [40] was > 100 µM (inactive), the GI50 [41] was > 100 µM (inactive) and the GI50 [42] was > 100 µM (inactive). For the same compound, the GI50 [43] was over 100 µM, the GI50 [44] was > 100 µM (inactive) and the GI50 [45] was > 100 µM (inactive). For the same compound, the GI50 [46] was > 100 µM (inactive), the GI50 [47] was > 100 µM (inactive) and the GI50 [48] was > 100 µM (inactive). For the same compound, the GI50 [49] was > 100 µM (inactive), the GI50 [50] was > 100 µM (inactive) and the GI50 [51] was > 100 µM (inactive). The GI50 [52] was > 100 µM (inactive), the GI50 [53] was > 100 µM (inactive) and the GI50 [54] was > 100 µM (inactive). For the same compound, the GI50 [55] was > 100 µM (inactive), the GI50 [56] was > 100 µM (inactive) and the GI50 [57] was > 100 µM (inactive).

In the case of `Nc1nc(N)c2nc(CNc3ccc(C(=O)NC(CCC(=O)O)C(=O)O)cc3F)cnc2n1` (centres undefined), the GI50 [1] is reported as < 0.01 µM (active), the GI50 [2] is reported as < 0.01 µM (active) and the GI50 [3] is reported as > 100 µM (inactive). For the same compound, the GI50 [4] was < 0.01 µM (active), the GI50 [5] was < 0.01 µM (active) and the GI50 [6] was < 0.01 µM (active). The GI50 [7] was < 0.01 µM (active), the GI50 [9] was < 0.01 µM (active) and the GI50 [10] was < 0.01 µM (active). For the same compound, the GI50 [11] was < 0.01 µM (active), the GI50 [12] was < 0.01 µM (active) and the GI50 [14] was > 100 µM (inactive). The GI50 [15] was > 100 µM (inactive), the GI50 [16] was < 0.01 µM (active) and the GI50 [17] was < 0.01 µM (active). For the same compound, the GI50 [18] was < 0.01 µM (active), the GI50 [20] was > 81.7 µM (inactive) and the GI50 [21] was < 0.0128 µM (active). The GI50 [22] was < 0.01 µM (active), the GI50 [23] was < 0.01 µM (active) and the GI50 [24] was < 0.01 µM (active). The GI50 [25] was < 0.01 µM (active), the GI50 [26] was > 48.2 µM (inactive) and the GI50 [27] was < 0.01 µM (active). For the same compound, the GI50 [28] was 16.1 µM (inactive), the GI50 [29] was > 100 µM (inactive) and the GI50 [30] was < 0.01 µM (active). For the same compound, the GI50 [31] was < 0.01 µM (active), the GI50 [32] was < 0.01 µM (active) and the GI50 [33] was < 0.01 µM (active). For the same compound, the GI50 [34] was < 0.01 µM (active), the GI50 [35] was < 0.01 µM (active) and the GI50 [36] was 45.1 µM (inactive). For the same compound, the GI50 [37] was > 100 µM (inactive), the GI50 [38] was < 0.01 µM (active) and the GI50 [39] was < 0.01 µM (active). The GI50 [40] was < 0.01 µM (active), the GI50 [58] was < 0.01 µM (active) and the GI50 [41] was < 0.01 µM (active). For the same compound, the GI50 [42] was < 0.01 µM (active), the GI50 [43] was under 0.01 µM and the GI50 [44] was < 0.01 µM (active). The GI50 [45] was > 100 µM (inactive), the GI50 [46] was < 0.01 µM (active) and the GI50 [48] was < 0.01 µM (active). The GI50 [49] was > 59 µM (inactive), the GI50 [50] was > 100 µM (inactive) and the GI50 [51] was < 0.01 µM (active). For the same compound, the GI50 [52] was < 0.01 µM (active), the GI50 [53] was > 57.9 µM (inactive) and the GI50 [54] was < 0.01 µM (active). The GI50 [55] was > 100 µM (inactive), the GI50 [56] was < 0.01 µM (active) and the GI50 [57] was < 0.01 µM (active).

For `CC(CN(C)C)Nc1c2ccccc2nc2cccc([N+](=O)[O-])c12` (centres undefined), the GI50 [18] was < 0.0153 µM (active), the GI50 [49] was < 0.01 µM (active) and the GI50 [50] was < 0.01 µM (active).

With `CN1CCN(c2cc3nsnc3c3nsnc23)CC1` the GI50 [1] was > 10 µM (inactive), the GI50 [3] was > 10 µM (inactive) and the GI50 [4] was > 10 µM (inactive). The GI50 [5] was > 10 µM (inactive), the GI50 [8] was > 10 µM (inactive) and the GI50 [9] was > 10 µM (inactive). The GI50 [12] was > 10 µM (inactive), the GI50 [14] was > 10 µM (inactive) and the GI50 [17] was > 10 µM (inactive). The GI50 [19] was > 10 µM (inactive), the GI50 [21] was > 10 µM (inactive) and the GI50 [22] was > 10 µM (inactive). For the same compound, the GI50 [24] was > 10 µM (inactive), the GI50 [25] was > 10 µM (inactive) and the GI50 [26] was > 10 µM (inactive). The GI50 [27] was > 10 µM (inactive), the GI50 [28] was > 10 µM (inactive) and the GI50 [29] was > 10 µM (inactive). For the same compound, the GI50 [30] was > 10 µM (inactive), the GI50 [31] was > 10 µM (inactive) and the GI50 [33] was > 10 µM (inactive). For the same compound, the GI50 [34] was > 10 µM (inactive), the GI50 [35] was > 10 µM (inactive) and the GI50 [38] was > 10 µM (inactive). The GI50 [39] was > 10 µM (inactive), the GI50 [40] was > 10 µM (inactive) and the GI50 [58] was > 10 µM (inactive). The GI50 [41] was > 10 µM (inactive), the GI50 [43] was over 10 µM and the GI50 [44] was > 10 µM (inactive). For the same compound, the GI50 [45] was > 10 µM (inactive), the GI50 [47] was > 10 µM (inactive) and the GI50 [48] was > 10 µM (inactive). For the same compound, the GI50 [50] was > 10 µM (inactive), the GI50 [51] was > 10 µM (inactive) and the GI50 [52] was > 10 µM (inactive). For the same compound, the GI50 [53] was > 10 µM (inactive), the GI50 [54] was > 10 µM (inactive) and the GI50 [56] was > 10 µM (inactive). For the same compound, the GI50 [57] was > 10 µM (inactive).
